Eleven compounds from ChEMBL document CHEMBL1201862, “PubChem BioAssay data set” (2004) can be followed below.

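Dose response: 5 concentrations. Exposure: 48 h. Format: 96-well plates. Endpoint: linear interpolation; highest concentration if not reached. The concentration for 50% growth inhibition is given as GI50.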 Calls of active or inactive are those of the source. No stated cut-off is given here; in the data, active = GI50 up to about 1.1 µM and inactive = higher.

Among the test systems are SN12C; ACHN; SW-620; A549; HL-60; UACC-257; NCI-H23; SK-MEL-28; SF-268; RXF 393; U-251; SNB-75; SF-539; M14; CAKI-1.
Common to all, as to assay: growth of human tumour cells (NCI), 48 h

Take `Nc1nc(O)c2c(ncn2CCO)n1`: the GI50 with SN12C, in the experiment with ACHN, with SW-620, in the experiment on A549, in the experiment with HL-60 and with UACC-257 was > 100 µM (inactive) in each case. The GI50 with NCI-H23, in the experiment with SK-MEL-28, in the experiment with SF-268, in the experiment with RXF 393, in the experiment with U-251 and with SNB-75 was > 100 µM (inactive) throughout. For the same compound, the GI50 in the experiment with SF-539 was > 100 µM (inactive).

On to `NC1=NS(=O)(=O)Nc2nc(-c3ccccc3)c(-c3ccccc3)nc21`, for which the GI50 in the experiment with SN12C, in the experiment on ACHN, in the experiment on SW-620, in the experiment on A549, in the experiment with HL-60 and in the experiment on UACC-257 was > 100 µM (inactive) in each case. Also, the GI50 in the experiment with NCI-H23, in the experiment on SK-MEL-28, in the experiment on SF-268, with RXF 393, in the experiment on U-251 and in the experiment with SNB-75 was > 100 µM (inactive) throughout. Besides, the GI50 in the experiment on SF-539 and in the experiment on M14 was > 100 µM (inactive) each time.

`O=c1c2cccnc2ncn1CCN1CCCCC1`: the GI50 in the experiment with SN12C, in the experiment on ACHN, in the experiment with SW-620, with A549, in the experiment on NCI-H23 and in the experiment with CAKI-1 was > 100 µM (inactive) throughout. The GI50 with SK-MEL-28, with SF-268, in the experiment on RXF 393, in the experiment with U-251, in the experiment on SNB-75 and in the experiment on SF-539 was > 100 µM (inactive) in each case. The GI50 in the experiment on M14 is > 100 µM (inactive).

Turning to `CC(C)(C)c1cc2c3c(c1)C(C(F)(F)F)(C(F)(F)F)O[Te]3(C)OC2(C(F)(F)F)C(F)(F)F`, the GI50 with SN12C, in the experiment on ACHN, with SW-620, in the experiment with A549, with HL-60 and in the experiment with UACC-257 was > 100 µM (inactive) in each case. In addition, the GI50 in the experiment with NCI-H23, with CAKI-1, with SK-MEL-28, with SF-268, in the experiment with RXF 393 and in the experiment on U-251 was > 100 µM (inactive) in each case. Further, the GI50 with SF-539 and in the experiment on M14 was > 100 µM (inactive) throughout.

Regarding `Cn1ccc(=NS(=O)(=O)c2ccccc2)cc1`, the GI50 in the experiment with ACHN, in the experiment with SW-620, in the experiment with A549, with HL-60, in the experiment on UACC-257 and in the experiment on NCI-H23 was > 100 µM (inactive) each time. Further, the GI50 in the experiment on SK-MEL-28, in the experiment with SF-268, in the experiment with RXF 393, in the experiment on U-251, in the experiment on SNB-75 and with SF-539 was > 100 µM (inactive) in each case.

In the case of `Cc1ccc(C2(O)CC(c3ccc([N+](=O)[O-])o3)=NN2C(=O)COc2ccccc2Cl)cc1` (centres undefined), the GI50 in the experiment with SN12C was 8.22 µM (inactive); in the experiment with ACHN it was 5.08 µM (inactive); in the experiment on SW-620 it was 6.7 µM (inactive); in the experiment on A549, 18.1 µM (inactive); in the experiment with HL-60, 2.84 µM (inactive); in the experiment on UACC-257 it was 8.18 µM (inactive). Besides, the GI50 was 12.4 µM (inactive) in the experiment with NCI-H23; 19.4 µM (inactive) with CAKI-1; 15.2 µM (inactive) in the experiment with SK-MEL-28; 10.5 µM (inactive) with SF-268; 9.68 µM (inactive) in the experiment on U-251; 15.3 µM (inactive) in the experiment on SNB-75. For the same compound, the GI50 is 17.4 µM (inactive) with SF-539 and 8.45 µM (inactive) with M14.

In the case of `COc1ccc2nc3c(C(=O)NCCN(C)C)cccc3nc2c1`, the GI50 was 3.41 µM (inactive) with SN12C; 3.94 µM (inactive) with ACHN; 3.1 µM (inactive) in the experiment with SW-620; 4.28 µM (inactive) with A549; 4.23 µM (inactive) with HL-60; 3.91 µM (inactive) in the experiment on UACC-257. Besides, the GI50 in the experiment on NCI-H23 was 4.73 µM (inactive); with CAKI-1, 3.75 µM (inactive); in the experiment with SK-MEL-28 it was 8.3 µM (inactive); with SF-268 it was 7.36 µM (inactive); in the experiment with U-251, 5 µM (inactive); in the experiment on SNB-75 it was 7.35 µM (inactive). The GI50 in the experiment with SF-539 was 2.51 µM (inactive); in the experiment on M14 it was 5.56 µM (inactive).

As to `N#Cc1c2nc3ccccc3nc2n2ccccc12`, the GI50 in the experiment with SN12C, with ACHN, with SW-620, in the experiment with A549, in the experiment with HL-60 and in the experiment with UACC-257 was > 100 µM (inactive) throughout. In addition, the GI50 with NCI-H23, with CAKI-1, with SK-MEL-28, in the experiment on SF-268, with U-251 and in the experiment with SNB-75 was > 100 µM (inactive) in each case. For the same compound, the GI50 with SF-539 and in the experiment with M14 was > 100 µM (inactive) each time.

With `C#CCOCn1cnc2c(Sc3c([N+](=O)[O-])ncn3C)ncnc21`, the GI50 in the experiment with SN12C, in the experiment on ACHN, with SW-620, with A549, in the experiment with HL-60 and in the experiment on UACC-257 was > 100 µM (inactive) in each case. In addition, the GI50 in the experiment on NCI-H23, in the experiment on CAKI-1, in the experiment on SK-MEL-28, in the experiment with SF-268, in the experiment on RXF 393 and in the experiment with U-251 was > 100 µM (inactive) each time. Besides, the GI50 with SNB-75 is 22.8 µM (inactive); with M14, > 100 µM (inactive).

Consider `CC12OC3CC(O1)C1(C=O)C4CCC5(C)C(c6ccc(=O)oc6)CCC5(O)C4CCC1(C3)O2` (centres undefined), for which the GI50 in the experiment on SN12C is 0.0621 µM (active); in the experiment on ACHN it was 0.0476 µM (active); in the experiment with SW-620 it was 0.177 µM (active); in the experiment with A549, 0.0611 µM (active); with HL-60, 0.189 µM (active); in the experiment with UACC-257 it was 0.234 µM (active). Further, the GI50 with CAKI-1 was 0.207 µM (active); with SK-MEL-28 it was 0.491 µM (active); in the experiment with SF-268 it was 0.103 µM (active); in the experiment with RXF 393, 0.104 µM (active); in the experiment with U-251 it was 0.293 µM (active); in the experiment with SNB-75, 0.252 µM (active). Further, the figures for the GI50 in the experiment on SF-539 and in the experiment on M14 were 0.102 µM (active) and 0.242 µM (active), respectively.

Regarding `Cc1ccc(O)c(C(=O)CCCC(=O)c2cc(C)ccc2O)c1`, the GI50 in the experiment with SN12C was > 100 µM (inactive); in the experiment on ACHN it was > 100 µM (inactive); in the experiment with SW-620, 30.2 µM (inactive); in the experiment on HL-60, 27.4 µM (inactive); in the experiment with UACC-257, > 100 µM (inactive); in the experiment with NCI-H23, > 100 µM (inactive). The GI50 with CAKI-1 is > 100 µM (inactive); in the experiment on SK-MEL-28, > 100 µM (inactive); in the experiment with SF-268, > 100 µM (inactive); in the experiment on U-251 it was 52.4 µM (inactive); with SNB-75, 81.5 µM (inactive); in the experiment on SF-539, > 100 µM (inactive). For the same compound, the GI50 in the experiment on M14 is > 100 µM (inactive).
